Results as given in patent publication US9695154B2, “Heteroaryl inhibitors of sumo activating enzyme” (MILLENNIUM PHARMACEUTICALS, INC., priority 2013, dated 2017).
pIC50: −log10 of the molar value.

Molecular target: T1, recombinant human SAE enzyme (Homo sapiens, UniProt Q9UBT2)
T1 sequence (Q9UBT2 1-640): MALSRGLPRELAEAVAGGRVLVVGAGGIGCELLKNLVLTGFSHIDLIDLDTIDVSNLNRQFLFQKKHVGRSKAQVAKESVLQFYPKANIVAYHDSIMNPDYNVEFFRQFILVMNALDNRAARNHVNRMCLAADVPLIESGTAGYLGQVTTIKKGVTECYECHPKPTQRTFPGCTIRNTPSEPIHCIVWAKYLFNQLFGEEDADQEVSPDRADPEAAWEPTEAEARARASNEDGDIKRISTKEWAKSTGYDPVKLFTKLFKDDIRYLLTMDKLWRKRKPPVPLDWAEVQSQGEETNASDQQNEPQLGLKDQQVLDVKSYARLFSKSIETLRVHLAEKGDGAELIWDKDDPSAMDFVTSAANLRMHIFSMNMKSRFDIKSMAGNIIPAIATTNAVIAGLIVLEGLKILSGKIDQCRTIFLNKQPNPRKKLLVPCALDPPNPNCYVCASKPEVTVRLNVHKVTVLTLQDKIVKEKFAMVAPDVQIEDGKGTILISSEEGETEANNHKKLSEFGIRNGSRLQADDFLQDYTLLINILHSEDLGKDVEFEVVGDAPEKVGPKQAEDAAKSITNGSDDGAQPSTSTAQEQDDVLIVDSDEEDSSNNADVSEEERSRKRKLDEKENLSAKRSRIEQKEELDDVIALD
T1 sequence (Q9UBE0 1-346 partner): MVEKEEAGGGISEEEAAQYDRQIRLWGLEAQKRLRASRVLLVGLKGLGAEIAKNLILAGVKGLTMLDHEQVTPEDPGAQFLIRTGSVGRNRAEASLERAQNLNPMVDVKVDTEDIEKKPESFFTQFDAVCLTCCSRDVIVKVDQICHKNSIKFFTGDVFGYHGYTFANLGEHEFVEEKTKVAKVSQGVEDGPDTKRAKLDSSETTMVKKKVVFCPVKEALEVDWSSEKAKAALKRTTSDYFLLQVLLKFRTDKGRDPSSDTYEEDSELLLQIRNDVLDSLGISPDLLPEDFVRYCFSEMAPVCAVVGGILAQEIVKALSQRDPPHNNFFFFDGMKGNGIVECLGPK
Assay: SAE HTRF Enzyme Assay
Assay type: biochemical
Details: for pIC50: class symbols A-C; for inhibition at 0.111 µM: compound concentration 0.111 μM, read-out: Percent Inhibition
Method in brief: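 SAE 0.11 nM; ATP 0.5 μM; Sumo-Flag 0.125 μM; Ubc9-GST 0.01 μM; 250 μM GSH, 5 mM MgCl2, pH 7.5. 105 min, 24° C. EDTA/KF stop plus Eu/APC antibodies, 2 h, TR-FRET. % inhibition or IC50.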

Row | SMILES | pIC50 | inhibition at 0.111 µM [%]
1 | NS(=O)(=O)OC[C@H]1C[C@@H](Nc2ccncc2C(=O)c2ccn(Cc3cccc(OC(F)(F)F)c3)n2)C[C@@H]1O [Compound I-18, [(1R,2S,4R)-2-hydroxy-4-{[3({1-[3-(trifluoromethoxy)benzyl]-1H-pyrazol-3-yl}carbonyl)pyridin-4-yl]amino}cyclopentyl]methyl sulfamate] | > 8.00 | 96
2 | NS(=O)(=O)OC[C@H]1C[C@@H](Nc2ncncc2C(=O)c2ccn(CC(=O)N3CCCC3)n2)[C@@H](F)[C@@H]1O [Compound I-19, [(1R,2R,3R,4R)-3-Fluoro-2-hydroxy-4-{[5-({1-[2-oxo-2-(pyrrolidin-1-yl)ethyl]-1H-pyrazol-3-yl}carbonyl)pyrimidin-4-yl]amino}cyclopentyl]methyl sulfamate] | 6.00 to 7.00 | 20
3 | NS(=O)(=O)OC[C@H]1C[C@@H](Nc2ncncc2C(=O)c2ccn(Cc3cccc(OC(F)(F)F)c3)n2)C[C@@H]1O [Compound I-20, [(1R,2S,4R)-2-hydroxy-4-{[5-({1-[3-(trifluoromethoxy)benzyl]-1H-pyrazol-3-yl}carbonyl)pyrimidin-4-yl]amino}cyclopentyl]methyl sulfamate] | > 8.00 | 96
4 | NS(=O)(=O)OC[C@H]1C[C@@H](Nc2ncncc2C(=O)c2ccn(Cc3ccc(F)c(C(F)(F)F)c3)c2)C[C@@H]1O [Compound I-21, [(1R,2S,4R)-4-{[5-({1-[4-fluoro-3-(trifluoromethyl)benzyl]-1H-pyrrol-3-yl}carbonyl)pyrimidin-4-yl]amino}-2-hydroxycyclopentyl]methyl sulfamate] | > 8.00 | 99
5 | Cc1cccc(Cn2ccc(C(=O)c3cncnc3N[C@@H]3C[C@H](COS(N)(=O)=O)[C@@H](O)C3)n2)c1F [Compound I-22, {(1R,2S,4R)-4-[(5-{[1-(2-fluoro-3-methylbenzyl)-1H-pyrazol-3-yl]carbonyl}pyrimidin-4-yl)amino]-2-hydroxycyclopentyl}methyl sulfamate] | > 8.00 | 100
6 | NS(=O)(=O)OC[C@H]1C[C@@H](Nc2ncncc2C(=O)c2ccn(Cc3cccc(OC(F)(F)F)c3)n2)[C@@H](F)[C@@H]1O [Compound I-23, [(1R,2R,3R,4R)-3-Fluoro-2-hydroxy-4-{[5-({1-[3-(trifluoromethoxy)benzyl]-1H-pyrazol-3-yl}carbonyl)pyrimidin-4-yl]amino}cyclopentyl]methyl sulfamate] | > 8.00 | 98
7 | NS(=O)(=O)OC[C@H]1C[C@@H](Nc2ncncc2C(=O)c2ccn(Cc3ccc(Br)o3)c2)[C@@H](F)[C@@H]1O [Compound I-24, [(1R,2R,3R,4R)-4-{[5-({1-[(5-Bromo-2-furyl)methyl]-1H-pyrrol-3-yl}carbonyl)pyrimidin-4-yl]amino}-3-fluoro-2-hydroxycyclopentyl]methyl sulfamate] | > 8.00 | 100
8 | N#Cc1cccc(Cn2ccc(C(=O)c3cncnc3N[C@@H]3C[C@H](COS(N)(=O)=O)[C@@H](O)[C@H]3O)n2)c1 [Compound I-25, {(1R,2R,3S,4R)-4-[(5-{[1-(3-cyanobenzyl)-1H-pyrazol-3-yl]carbonyl}pyrimidin-4-yl)amino]-2,3-dihydroxycyclopentyl}methyl sulfamate] | > 8.00 | 93
9 | CC(C)(C)C#CCn1ccc(C(=O)c2cncnc2N[C@@H]2C[C@H](COS(N)(=O)=O)[C@@H](O)[C@@H]2F)c1 [Compound I-26, {(1R,2R,3R,4R)-4-[(5-{[1-(4,4-dimethylpent-2-yn-1-yl)-1H-pyrrol-3-yl]carbonyl}pyrimidin-4-yl)amino]-3-fluoro-2-hydroxycyclopentyl}methyl sulfamate] | 7.00 to 8.00 | 90
10 | NS(=O)(=O)OC[C@H]1C[C@@H](Nc2ncncc2C(=O)c2ccn(CC#CC3(O)CCOCC3)n2)C[C@@H]1O [Compound I-27, [(1R,2S,4R)-2-hydroxy-4-{[5-({1-[3-(4-hydroxytetrahydro-2H-pyran-4-yl)prop-2-yn-1-yl]-1H-pyrazol-3-yl}carbonyl)pyrimidin-4-yl]amino}cyclopentyl]methyl sulfamate] | 6.00 to 7.00 | 9
11 | CCOCCn1ccc(C(=O)c2cncnc2N[C@@H]2C[C@H](COS(N)(=O)=O)[C@@H](O)[C@H]2O)n1 [Compound I-28, {(1R,2R,3S,4R)-4-[(5-{[1-(2-ethoxyethyl)-1H-pyrazol-3-yl]carbonyl}pyrimidin-4-yl)amino]-2,3-dihydroxycyclopentyl}methyl sulfamate] | 7.00 to 8.00 | 78
12 | NS(=O)(=O)OC[C@H]1C[C@@H](Nc2ncncc2C(=O)c2ccn(Cc3cncc(Br)c3)n2)C[C@@H]1O [Compound I-29, [(1R,2S,4R)-4-{[5-({1-[(5-bromopridin-3-yl)methyl]-1H-pyrazol-3-yl}carbonyl)pyrimidin-4-yl]amino}-2-hydroxycyclopentyl]methyl sulfamate] | 7.00 to 8.00 | 94
13 | NS(=O)(=O)OC[C@H]1C[C@@H](Nc2ncncc2C(=O)c2ccn(CC3CC3)n2)[C@H](O)[C@@H]1O [Compound I-30, {(1R,2R,3S,4R)-4-[(5-{[1-(cyclopropylmethyl)-1H-pyrazol-3-yl]carbonyl}pyrimidin-4-yl)amino]-2,3-dihydroxycyclopentyl}methyl sulfamate] | 7.00 to 8.00 | 66
14 | Cc1cc(C(=O)c2cncnc2N[C@@H]2C[C@H](COS(N)(=O)=O)[C@@H](O)[C@H]2O)nn1Cc1ccccc1 [Compound I-31, [(1R,2R,3S,4R)-4-({5-[(1-benzyl-5-methyl-1H-pyrazol-3-yl)carbonyl]pyrimidin-4-yl}amino)-2,3-dihydroxycyclopentyl]methyl sulfamate] | > 8.00 | 94
15 | Cc1ccc(F)c(Cn2ccc(C(=O)c3cncnc3N[C@@H]3C[C@H](COS(N)(=O)=O)[C@@H](O)C3)n2)c1 [Compound I-32, {(1R,2S,4R)-4-[(5-{[1-(2-fluoro-5-methylbenzyl)-1H-pyrazol-3-yl]carbonyl}pyrimidin-4-yl)amino]-2-hydroxycyclopentyl}methyl sulfamate] | > 8.00 | 98
16 | NS(=O)(=O)OC[C@H]1C[C@@H](Nc2ncncc2C(=O)c2ccn(CCc3c[nH]c4ccccc34)n2)[C@H](O)[C@@H]1O [Compound I-33, [(1R,2R,3S,4R)-2,3-dihydroxy-4-{[5-({1-[2-(1H-indol-3-yl)ethyl]-1H-pyrazol-3-yl}carbonyl)pyrimidin-4-yl]amino}cyclopentyl]methyl sulfamate] | > 8.00 | 98
17 | NS(=O)(=O)OC[C@H]1C[C@@H](Nc2ncncc2C(=O)c2ccn(Cc3ccc(Cl)c(C(F)(F)F)c3)n2)[C@H](O)[C@@H]1O [Compound I-34, [(1R,2R,3S,4R)-4-{[5-({1-[4-chloro-3-(trifluoromethyl)benzyl]-1H-pyrazol-3-yl}carbonyl)pyrimidin-4-yl]amino}-2,3-dihydroxycyclopentyl] methyl sulfamate] | > 8.00 | 99
18 | NS(=O)(=O)OC[C@H]1C[C@@H](Nc2ncncc2C(=O)c2ccn(Cc3cc(F)ccc3F)n2)C[C@@H]1O [Compound I-35, {(1R,2S,4R)-4-[(5-{[1-(2,5-difluorobenzyl)-1H-pyrazol-3-yl]carbonyl}pyrimidin-4-yl)amino]-2-hydroxycyclopentyl}methyl sulfamate] | > 8.00 | 95
19 | NS(=O)(=O)OC[C@H]1C[C@@H](Nc2ncncc2C(=O)c2cc(Cl)n(Cc3ccc(C(F)(F)F)o3)c2)[C@@H](F)[C@@H]1O [Compound I-36, [(1R,2R,3R,4R)-4-({5-[(5-chloro-1-{[5-(trifluoromethyl)-2-furyl]methyl}-1H-pyrrol-3-yl)carbonyl]pyrimidin-4-yl}amino)-3-fluoro-2-hydroxycyclopentyl]methyl sulfamate] | > 8.00 | 99
20 | CSCCn1ccc(C(=O)c2cncnc2N[C@@H]2C[C@H](COS(N)(=O)=O)[C@@H](O)C2)n1 [Compound I-37, [(1R,2S,4R)-2-hydroxy-4-{[5-({1-[2-(methylsulfanyl)ethyl]-1H-pyrazol-3-yl}carbonyl)pyrimidin-4-yl]amino}cyclopentyl]methyl sulfamate] | 6.00 to 7.00 | 42
